Tests used:
Type in all cases: in vivo
Spodoptera littoralis = Spodoptera littoralis (Egyptian cotton leaf worm) cotton leaf disc test; conditions: foliar, 72 h, read-out: control (at least one of mortality, anti-feedant effect, and growth inhibition)
Method in brief: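 Five first-instar larvae per disc were placed on dried, sprayed cotton leaf discs held on agar. Test solutions were aqueous, made from 10′000 ppm DMSO stocks. At day 3, control was counted when mortality, feeding deterrence or growth inhibition exceeded the untreated discs.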

Plutella xylostella = Plutella xylostella (diamond back moth) artificial diet test; conditions: 120 h, read-out: effect in at least one of the two categories (mortality or growth inhibition)
Method in brief: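 At a 200 ppm rate, test solutions were applied to artificial diet and allowed to dry before second-instar larvae were added. Five days later, larval mortality and growth inhibition were rated against untreated samples.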

Thrips tabaci = Thrips tabaci (onion thrips) sunflower leaf disc test; conditions: foliar, 144 h
Experimental: Thrips tabaci (Onion Thrips):
(§1) Sunflower leaf discs were placed on agar in 24-well microtiter plates and sprayed with aqueous test solutions prepared from 10′000 ppm DMSO stock solutions. After drying the leaf discs were infested with a thrips population of mixed ages. The samples were assessed for mortality 6 days after infestation.

Tetranychus urticae = Tetranychus urticae (two-spotted spider mite) bean leaf disc test; conditions: foliar, 192 h
Experimental: Tetranychus urticae (Two-Spotted Spider Mite):
as §1, with “Bean” for “Sunflower”, “discs” for “discs were placed”, “were” for “and”, “mite” for “thrips”, “on mixed population (mobile stages) 8” for “6”

Myzus persicae = Myzus persicae (green peach aphid) sunflower leaf disc test; conditions: foliar, 144 h
Experimental: Myzus persicae (Green Peach Aphid):
Sunflower leaf discs were placed on agar in a 24-well microtiter plate and sprayed with test solutions at an application rate of 200 ppm. After drying, the leaf discs were infested with an aphid population of mixed ages. After an incubation period of 6 days after treatment, samples were checked for mortality. The following compounds gave at least 80% mortality of Myzus persicae: […]

Diabrotica Balteata = assay: Diabrotica balteata (corn root worm) maize sprout test; conditions: 96 h, read-out: effect in at least one of the two categories (mortality or growth inhibition)
Method in brief: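 Scoring covered both mortality and growth inhibition relative to untreated controls, 4 days post-infestation. Test solutions at 200 ppm, diluted in water from 10′000 ppm DMSO stocks, were sprayed onto agar-held maize sprouts, which after drying received 6 to 10 L2 larvae each well.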

Cc1cc(C2=NO[C@@](c3cc(Cl)c(F)c(Cl)c3)(C(F)(F)F)C2)ccc1C(=O)NC1CC(OC(C)C)=NO1 (stereo partly drawn) [Compound A077]
≥ 80%: percent control (mortality, anti-feedant effect or growth inhibition) at 200 ppm (Spodoptera littoralis) | percent effect (mortality or growth inhibition) at 200 ppm (Plutella xylostella) | mortality at 200 ppm (Thrips tabaci) | mortality at 200 ppm (Tetranychus urticae) | mortality at 200 ppm (Myzus persicae) | percent effect (mortality or growth inhibition) at 200 ppm (Diabrotica Balteata)

Cc1cc(C2=NO[C@@](c3cc(Cl)c(Cl)c(Cl)c3)(C(F)(F)F)C2)ccc1C(=O)NC1CC(OCC2CCC2)=NO1 (stereo partly drawn) [Compound A111, N-[3-(cyclobutylmethoxy)-4,5-dihydroisoxazol-5-yl]-2-methyl-4-[(5S)-5-(3,4,5-trichlorophenyl)-5-(trifluoromethyl)-4H-isoxazol-3-yl]benzamide]
≥ 80%: percent control (mortality, anti-feedant effect or growth inhibition) at 200 ppm (Spodoptera littoralis) | percent effect (mortality or growth inhibition) at 200 ppm (Plutella xylostella) | mortality at 200 ppm (Thrips tabaci) | mortality at 200 ppm (Tetranychus urticae) | mortality at 200 ppm (Myzus persicae) | percent effect (mortality or growth inhibition) at 200 ppm (Diabrotica Balteata)

Cc1cc(C2=NO[C@@](c3cc(Cl)c(Cl)c(Cl)c3)(C(F)(F)F)C2)ccc1C(=O)NC1CC(OCC(F)F)=NO1 (stereo partly drawn) [Compound A127, N-[3-(2,2-difluoroethoxy)-4,5-dihydroisoxazol-5-yl]-2-methyl-4-[(5S)-5-(3,4,5-trichlorophenyl)-5-(trifluoromethyl)-4H-isoxazol-3-yl]benzamide]
≥ 80%: percent control (mortality, anti-feedant effect or growth inhibition) at 200 ppm (Spodoptera littoralis) | percent effect (mortality or growth inhibition) at 200 ppm (Plutella xylostella) | mortality at 200 ppm (Thrips tabaci) | mortality at 200 ppm (Tetranychus urticae) | mortality at 200 ppm (Myzus persicae) | percent effect (mortality or growth inhibition) at 200 ppm (Diabrotica Balteata)

Cc1cc(C2=NO[C@@](c3cc(Cl)c(F)c(Cl)c3)(C(F)(F)F)C2)ccc1C(=O)NC1CC(Cl)=NO1 (stereo partly drawn) [Compound A003, N-(3-chloro-4,5-dihydroisoxazol-5-yl)-4-[(5S)-5-(3,5-dichloro-4-fluoro-phenyl)-5-(trifluoromethyl)-4H-isoxazol-3-yl]-2-methyl-benzamide]
≥ 80%: percent control (mortality, anti-feedant effect or growth inhibition) at 200 ppm (Spodoptera littoralis) | percent effect (mortality or growth inhibition) at 200 ppm (Plutella xylostella) | mortality at 200 ppm (Thrips tabaci) | mortality at 200 ppm (Tetranychus urticae) | mortality at 200 ppm (Myzus persicae) | percent effect (mortality or growth inhibition) at 200 ppm (Diabrotica Balteata)

Cc1cc(C2=NO[C@@](c3cc(Cl)c(F)c(Cl)c3)(C(F)(F)F)C2)ccc1C(=O)NC1CC(COC=O)=NO1 (stereo partly drawn) [Compound A089]
≥ 80%: percent control (mortality, anti-feedant effect or growth inhibition) at 200 ppm (Spodoptera littoralis) | percent effect (mortality or growth inhibition) at 200 ppm (Plutella xylostella) | mortality at 200 ppm (Thrips tabaci) | mortality at 200 ppm (Tetranychus urticae) | mortality at 200 ppm (Myzus persicae) | percent effect (mortality or growth inhibition) at 200 ppm (Diabrotica Balteata)

COC1=NOC(NC(=O)c2ccc(C3=NO[C@@](c4cc(Cl)cc(C(F)(F)F)c4)(C(F)(F)F)C3)cc2Cl)C1 (stereo partly drawn) [Compound A065]
≥ 80%: percent control (mortality, anti-feedant effect or growth inhibition) at 200 ppm (Spodoptera littoralis) | percent effect (mortality or growth inhibition) at 200 ppm (Plutella xylostella) | mortality at 200 ppm (Thrips tabaci) | mortality at 200 ppm (Tetranychus urticae) | mortality at 200 ppm (Myzus persicae) | percent effect (mortality or growth inhibition) at 200 ppm (Diabrotica Balteata)

Cc1cc(C2=NO[C@@](c3cc(Cl)c(F)c(Cl)c3)(C(F)(F)F)C2)ccc1C(=O)NC1CC(C=O)=NO1 (stereo partly drawn) [Compound A099]
≥ 80%: percent control (mortality, anti-feedant effect or growth inhibition) at 200 ppm (Spodoptera littoralis) | percent effect (mortality or growth inhibition) at 200 ppm (Plutella xylostella) | mortality at 200 ppm (Thrips tabaci) | mortality at 200 ppm (Tetranychus urticae) | mortality at 200 ppm (Myzus persicae) | percent effect (mortality or growth inhibition) at 200 ppm (Diabrotica Balteata)

Cc1cc(C2=NO[C@@](c3cc(Cl)c(F)c(Cl)c3)(C(F)(F)F)C2)ccc1C(=O)N(C=O)C1CC(Br)=NO1 (stereo partly drawn) [Compound A002, N-(3-bromo-4,5-dihydroisoxazol-5-yl)-4-[(5S)-5-(3,5-dichloro-4-fluoro-phenyl)-5-(trifluoromethyl)-4H-isoxazol-3-yl]-N-formyl-2-methyl-benzamide]
≥ 80%: percent control (mortality, anti-feedant effect or growth inhibition) at 200 ppm (Spodoptera littoralis) | percent effect (mortality or growth inhibition) at 200 ppm (Plutella xylostella) | mortality at 200 ppm (Thrips tabaci) | mortality at 200 ppm (Tetranychus urticae) | mortality at 200 ppm (Myzus persicae) | percent effect (mortality or growth inhibition) at 200 ppm (Diabrotica Balteata)

Source: patent US10499642B2, “Isoxazoline-substituted benzamides and analogues as insecticides” (SYNGENTA PARTICIPATIONS AG, priority 2015, dated 2019)
